Measured values reported in US6911431B1 (priority 1989, dated 2005).

System: chicken embryo chorioallantoic membrane
Assay: Chicken embryo chorioallantoic membrane (CAM) angiogenesis assay
Assay type: in vivo
Settings: 48 hrs; for Inhibition of Neovascularization Grade/Mean ± SD: grade scale 0-4
Experimental: Briefly, eight-day chicken embryos were removed from eggs and placed into sterile petri dishes. Individual filter paper disks were saturated with 7.5 μl of different stock solutions of L-Glu-L-Trp dissolved in sterile 0.14M NaCl to achieve final test concentrations of 0.001, 0.01, 0.1, 1.0, 10, 100, 500, and 1000 μg per disk. Disks were air dried and then inverted onto the surface of the respective embryos.
In this experiment saline served as a negative control and 10 μg/disk of heparin served as a positive control. The pentapeptide Thr-Ala-Glu-Glu-Lys (TAEEK) (SEQ ID NO 7) served as a specificity control, (i.e., for possible nonspecific effects of peptides on neovascularization at the concentrations tested). Nine-12 test disks and a corresponding number of different embryos were employed for each test concentration along with […] (each) positive and negative control embryos.

heparin
Inhibition of Neovascularization Grade/Range (10 μg/disk): 1-4 | Mean % Inhibition of Neovascularization (10 μg/disk): 81 ± 18% | Inhibition of Neovascularization Grade/Mean ± SD (10 μg/disk): 3.26 ± 0.73

Thr-Ala-Glu-Glu-Lys (TAEEK) [pentapeptide specificity control]
Inhibition of Neovascularization Grade/Range (0.001 μg/disk): 0-0 | Mean % Inhibition of Neovascularization (0.001 μg/disk): 0% | Inhibition of Neovascularization Grade/Mean ± SD (0.001 μg/disk): 0 ± 0 | Inhibition of Neovascularization Grade/Range (0.01 μg/disk): 0-0 | Mean % Inhibition of Neovascularization (0.01 μg/disk): 0% | Inhibition of Neovascularization Grade/Mean ± SD (0.01 μg/disk): 0 ± 0 | Inhibition of Neovascularization Grade/Range (0.1 μg/disk): 0-0 | Mean % Inhibition of Neovascularization (0.1 μg/disk): 0% | Inhibition of Neovascularization Grade/Mean ± SD (0.1 μg/disk): 0 ± 0 | Inhibition of Neovascularization Grade/Range (1 μg/disk): 0-1 | Mean % Inhibition of Neovascularization (1 μg/disk): 8 ± 10% | Inhibition of Neovascularization Grade/Mean ± SD (1 μg/disk): 0.33 ± 0.49 | Inhibition of Neovascularization Grade/Range (10 μg/disk): 0-1 | Mean % Inhibition of Neovascularization (10 μg/disk): 5 ± 10% | Inhibition of Neovascularization Grade/Mean ± SD (10 μg/disk): 0.18 ± 0.40 | Inhibition of Neovascularization Grade/Range (100 μg/disk): 0-2 | Mean % Inhibition of Neovascularization (100 μg/disk): 18 ± 23% | Inhibition of Neovascularization Grade/Mean ± SD (100 μg/disk): 0.67 ± 0.87 | Inhibition of Neovascularization Grade/Range (500 μg/disk): 0-1 | Mean % Inhibition of Neovascularization (500 μg/disk): 9 ± 13% | Inhibition of Neovascularization Grade/Mean ± SD (500 μg/disk): 0.3 ± 0.48 | Inhibition of Neovascularization Grade/Range (1000 μg/disk): 0-2 | Mean % Inhibition of Neovascularization (1000 μg/disk): 18 ± 20% | Inhibition of Neovascularization Grade/Mean ± SD (1000 μg/disk): 0.7 ± 0.82
